In the supplement of paper PMC10331698:
± gives the standard deviation of the averaged measurements.

Columns and labels:
Experiment in all cases: level (log10 ratio to DMSO vehicle control); higher = higher biomarker level / cell amount than vehicle control
Conditions in all cases: in DMSO
Perfluorohexanoic acid = compound: O=C(O)C(F)(F)C(F)(F)C(F)(F)C(F)(F)C(F)(F)F [Perfluorohexanoic acid]
Procedure: (§1)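 BioMAP Diversity Plus panel of 12 human primary cell co-culture systems (3C, 4H, LPS, SAg, BT, BF4T, BE3C, CASM3C, HDF3CGF, KF3CT, MyoF, Mphg). Compounds were added 1 h before stimulation and left for 24 h (MyoF 48 h; BT 72 h for soluble read-outs or 6 d for IgG). Biomarkers were read by ELISA, cytotoxicity by SRB, PBMC viability and proliferation by Alamar Blue. Each well value was divided by the mean of 8 DMSO control wells on the same plate and log10 transformed; duplicate blinded samples were tested at 4 concentrations.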

[1] = compound: O=C(O)CCC(F)(F)C(F)(F)C(F)(F)C(F)(F)C(F)(F)F [2H,2H,3H,3H-Perfluorooctanoic acid]
Procedure: as §1

[2] = compound: O=S(=O)(O)C(F)(F)C(F)(F)C(F)(F)C(F)(F)C(F)(F)C(F)(F)C(F)(F)C(F)(F)F [Perfluorooctanesulfonic acid]
Procedure: as §1

[3] = compound: CNS(=O)(=O)C(F)(F)C(F)(F)C(F)(F)C(F)(F)C(F)(F)C(F)(F)C(F)(F)C(F)(F)F [N-Methylperfluorooctanesulfonamide]
Procedure: as §1

[4] = compound: O=S(=O)(O)C(F)(F)C(F)(F)C(F)(F)C(F)(F)C(F)(F)C(F)(F)C(F)(F)C(F)(F)F [Potassium perfluorooctanesulfonate]
Procedure: as §1

[5] = compound: CC(C)(C)C(=O)CC(=O)C(F)(F)C(F)(F)C(F)(F)F [(Heptafluorobutanoyl)pivaloylmethane]
Procedure: as §1

Row | Test System | level (log10) (Perfluorohexanoic acid; 6700 nM) | level (log10) (Perfluorohexanoic acid; 20000 nM) | level (log10) (Perfluorohexanoic acid; 60000 nM) | level (log10) ([1]; 6700 nM) | level (log10) ([1]; 20000 nM) | level (log10) ([1]; 60000 nM) | level (log10) ([2]; 6700 nM) | level (log10) ([2]; 20000 nM) | level (log10) ([2]; 60000 nM) | level (log10) ([3]; 6700 nM) | level (log10) ([3]; 20000 nM) | level (log10) ([3]; 60000 nM) | level (log10) ([4]; 6700 nM) | level (log10) ([4]; 20000 nM) | level (log10) ([4]; 60000 nM) | level (log10) ([5]; 6700 nM) | level (log10) ([5]; 20000 nM) | level (log10) ([5]; 60000 nM)
1 | BE3C:CD87/uPAR | -0.002 ± 0.0085 | -0.0105 ± 0.00071 | 0.0205 ± 0.00071 | -0.0085 ± 0.0064 | 0.005 ± 0.033 | 0.0255 ± 0.037 | 0.0465 ± 0.005 | 0.081 ± 0.045 | 0.0355 ± 0.0021 | 0.0125 ± 0.015 | 0.0575 ± 0.061 | 0.083 ± 0.011 | 0.0335 ± 0.022 | 0.081 ± 0.054 | 0.14 ± 0.025 | 0.0035 ± 0.032 | 0.0235 ± 0.0078 | -0.0045 ± 0.005
2 | BE3C:CXCL8/IL-8 | 0.0095 ± 0.042 | 0.0135 ± 0.00071 | 0.017 ± 0.021 | 0.033 ± 0.042 | 0.004 ± 0.041 | 0.0035 ± 0.036 | -0.0875 ± 0.0035 | -0.136 ± 0.0021 | -0.348 ± 0.25 | -0.112 ± 0.0021 | -0.118 ± 0.0042 | -0.2 ± 0.078 | -0.053 ± 0.065 | -0.112 ± 0.035 | -0.082 ± 0.024 | -0.0095 ± 0.018 | -0.015 ± 0.021 | -0.017 ± 0.076
3 | BE3C:CXCL9/MIG | 0.005 ± 0.0014 | 0 ± 0.0099 | 0.001 ± 0.0099 | -0.003 | -0.008 ± 0.0057 | 0.0005 ± 0.0035 | 0.0105 ± 0.0078 | -0.011 ± 0.021 | -0.513 ± 0.32 | 0.0125 ± 0.016 | 0.009 ± 0.018 | 0.021 ± 0.028 | 0.0095 ± 0.0064 | -0.014 ± 0.024 | -0.039 ± 0.021 | -0.0045 ± 0.0035 | -0.0025 ± 0.0064 | -0.0005 ± 0.0064
4 | BE3C:CXCL10/IP-10 | 0.0095 ± 0.018 | 0.0125 ± 0.0092 | 0.0245 ± 0.011 | -0.009 ± 0.0042 | -0.006 ± 0.0028 | -0.0075 ± 0.005 | -0.0365 ± 0.013 | -0.478 ± 0.054 | -0.7725 ± 0.0035 | -0.0415 ± 0.026 | -0.0475 ± 0.0064 | -0.0795 ± 0.049 | -0.0455 ± 0.0035 | -0.505 ± 0.0057 | -0.589 ± 0.014 | 0.006 ± 0.024 | -0.0025 ± 0.022 | -0.0055 ± 0.019
5 | BE3C:CXCL11/I-TAC | 0.008 ± 0.014 | 0.0065 ± 0.0064 | 0.027 ± 0.0042 | 0.0305 ± 0.016 | 0.0535 ± 0.012 | 0.036 ± 0.014 | -0.0085 ± 0.00071 | -0.0735 ± 0.028 | -0.555 ± 0.15 | -0.03 ± 0.0099 | -0.0165 ± 0.018 | -0.043 ± 0.0028 | -0.002 ± 0.0042 | -0.113 ± 0.012 | -0.203 ± 0.024 | -0.0005 ± 0.04 | 0.01 ± 0.037 | 0.024 ± 0.028
6 | BE3C:EGFR | 0.003 ± 0.0014 | -0.005 ± 0.0028 | 0.0025 ± 0.015 | -0.004 ± 0.0042 | -0.0225 ± 0.029 | -0.008 ± 0.0099 | 0.0025 ± 0.023 | -0.125 ± 0.059 | -0.159 ± 0.12 | 0.001 ± 0.0057 | -0.0005 ± 0.0064 | -0.0305 ± 0.026 | -0.012 ± 0.021 | -0.173 ± 0.043 | -0.182 ± 0.071 | 0.0095 ± 0.016 | -0.0055 ± 0.023 | -0.0175 ± 0.00071
7 | BE3C:HLA-DR | -0.0025 ± 0.0021 | -0.011 ± 0.0028 | -0.012 ± 0.0099 | 0 ± 0.0042 | -0.009 ± 0.0071 | -0.0175 ± 0.012 | -0.0155 ± 0.016 | -0.189 ± 0.014 | -0.409 ± 0.1 | -0.0225 ± 0.0064 | -0.0445 ± 0.012 | -0.039 ± 0.041 | -0.012 ± 0.018 | -0.194 ± 0.023 | -0.191 ± 0.042 | 0.0115 ± 0.0021 | 0.01 ± 0.0042 | -0.017 ± 0.0057
8 | BE3C:IL-1alpha | 0.005 ± 0.0071 | -0.0115 ± 0.0035 | -0.002 ± 0.0042 | -0.0075 ± 0.0064 | -0.0125 ± 0.019 | -0.005 | 0.0315 ± 0.023 | 0.0055 ± 0.016 | -0.237 ± 0.2 | 0.0325 ± 0.005 | 0.042 ± 0.013 | 0.0695 ± 0.005 | 0.022 ± 0.0042 | 0.02 ± 0.0071 | -0.0105 ± 0.03 | -0.0015 ± 0.021 | -0.0035 ± 0.0035 | -0.003 ± 0.021
9 | BF4T:CCL2/MCP-1 | -0.0045 ± 0.0021 | -0.012 ± 0.024 | -0.0015 ± 0.052 | 0.0285 ± 0.015 | -0.011 ± 0.031 | -0.0235 ± 0.096 | 0.0145 ± 0.005 | 0.0095 ± 0.035 | -0.0565 ± 0.21 | -0.022 ± 0.011 | -0.049 ± 0.025 | -0.0785 ± 0.083 | 0.005 ± 0.072 | 0.0255 ± 0.022 | 0.07 ± 0.016 | -0.0085 ± 0.0064 | 0.004 ± 0.038 | -0.223 ± 0.34
10 | BF4T:CCL26/Eotaxin-3 | 0.0135 ± 0.015 | 0.005 ± 0.024 | 0.0115 ± 0.011 | -0.0305 ± 0.013 | -0.0615 ± 0.029 | -0.0695 ± 0.11 | -0.0595 ± 0.026 | -0.155 ± 0.0085 | -0.192 ± 0.097 | -0.203 ± 0.005 | -0.199 ± 0.015 | -0.196 ± 0.047 | -0.0775 ± 0.074 | -0.146 ± 0.056 | -0.126 ± 0.0064 | 0.009 ± 0.048 | -0.0205 ± 0.032 | -0.0065 ± 0.0064
11 | BF4T:CD54/ICAM-1 | -0.011 ± 0.0014 | -0.0135 ± 0.0064 | -0.0005 ± 0.0021 | -0.0175 ± 0.018 | -0.0115 ± 0.0021 | -0.0075 ± 0.0092 | -0.0065 ± 0.019 | -0.0115 ± 0.028 | -0.018 ± 0.014 | 0.009 ± 0.024 | 0.013 ± 0.0085 | 0.028 ± 0.011 | 0.0055 ± 0.032 | 0.0025 ± 0.012 | 0.0215 ± 0.035 | -0.006 ± 0.0014 | -0.0145 ± 0.005 | -0.0155 ± 0.015
12 | BF4T:CD90 | -0.0045 ± 0.011 | -0.0005 ± 0.011 | -0.007 ± 0.011 | -0.018 ± 0.011 | -0.019 ± 0.0014 | -0.02 ± 0.02 | -0.0015 ± 0.011 | 0.005 ± 0.0014 | 0.0135 ± 0.0021 | -0.006 ± 0.0042 | -0.005 | -0.0065 ± 0.0078 | 0.0085 ± 0.0064 | -0.0075 ± 0.00071 | 0.0075 ± 0.019 | -0.0065 ± 0.012 | -0.0015 ± 0.0035 | 0.004 ± 0.0028
13 | BF4T:CD106/VCAM-1 | 0.0025 ± 0.042 | -0.0145 ± 0.0078 | -0.017 ± 0.017 | -0.011 ± 0.024 | -0.03 ± 0.0057 | -0.007 ± 0.093 | -0.0065 ± 0.0021 | -0.0155 ± 0.012 | -0.016 ± 0.03 | -0.0235 ± 0.023 | -0.0335 ± 0.0092 | 0.0175 ± 0.071 | 0.0115 ± 0.015 | -0.014 ± 0.0099 | 0.01 ± 0.052 | 0.0075 ± 0.015 | -0.002 ± 0.0042 | -0.005
14 | BF4T:CXCL8/IL-8 | -0.0055 ± 0.025 | 0.0155 ± 0.0078 | 0.0415 ± 0.042 | 0.0095 ± 0.035 | 0.033 ± 0.047 | 0.0645 ± 0.043 | -0.0155 ± 0.00071 | -0.032 ± 0.014 | -0.0185 ± 0.059 | -0.045 ± 0.03 | -0.034 ± 0.028 | -0.14 ± 0.03 | 0.0005 ± 0.052 | -0.0105 ± 0.047 | 0.0205 ± 0.0078 | -0.0045 ± 0.035 | -0.002 ± 0.0085 | 0.0175 ± 0.029
